# Assay results reported in patent US10842829B2, “Natural product to improve immunity and combat viral diseases, bacterial diseases, fungal diseases, and cancer diseases” (priority 2017, dated 2020).
# What was measured:
# [1] = tested on: Streptococcus isolated from cow's milk; assay: Streptococcus germs cultured in a lab setting
# [2] = tested on: Pasteurella; assay: Pasteurella disease treatment; details: second group of 10 sheep, both antibiotics together
# [3] = tested on: mycoplasma; assay: Mycoplasma disease treatment; format: in vivo; details: three sheep
# Procedure: The experiment was at four sheep farms. The sheep suffered from cough and high temperature (42° C.). When performing autopsy on dead sheep, the congestion in the lungs was clear. […] Ampicillin only affects the cell wall.
# Another 10 sick sheep from each farm were isolated and treated with 5 ml of Tylosin and Enrofloxacin.
# [4] = tested on: NHDF cells (Normal Human Dermal Fibroblast cell line); assay: XTT proliferation assay on NHDF cells; format: cell-based
# Procedure: FIGS. 20-23 and Tables F1-F4 relate to a study to determine the potency of novel natural extract compounds in inhibiting the proliferation of Normal Human Dermal Fibroblast cell line (NHDF cells). […] In this study: Compound I, III and IV which are arrangements of compound according to the present invention are evaluated in a XTT proliferation assay for 72 hours to determine its potency in inhibiting the proliferation of NHDF cells. Traditionally, the in-vitro determination of toxic effects of unknown compounds has been performed by counting viable cells after staining with a vital dye. The XTT system is a mean of measuring the activity of living cells via mitochondrial dehydrogenases. The XTT method is simple, accurate and yields reproducible results. […] Solutions of XTT, prepared in medium or balances salt solutions without phenol red, are yellowish in colour. Mitochondrial dehydrogenases of viable cells cleave the tetrazolium ring of XTT yielding orange formazon crystals which are soluble in aqueous solutions. The resulting orange colour is spectrophotometrically measured. The bio-reduction is XTT is inefficient but can be potentiated by the addition of an electron coupling agent such as phenazine methosulphate (PMS) to the reaction. An increase or decrease in cell numbers results in a concomitant change in the amount of formazon formed, indicating the degree of cytotoxicity caused by the test material. In the foregoing study the following kits and reagents were used: • Cells: NHDF, a Normal Human Dermal Fibroblast cell line (Lonza) • Media: FGM-2 bullet kit media • Cell culture T75 flasks (BD-Falcon-LAB353136) • 96 well cell clear tissue culture treated plates (BD-Falcon-LAB353072) • Dimethyl Sulphoxide (DMSO) (Sigma-D2650) • XT (Sigma-[…]) • PMS (Sigma-[…]) In the foregoing study, three arrangement of compound according to the present invention, which in FIGS. 20-23 and Tables F1-F4 are designated as compounds I, III and IV, were tested. In the foregoing study, the control or vehicle was sterile deionized water. In regard to experimental procedure, for seeding in a 96-well plate, the cells were re-suspended to a density of […] of complete FGM-2 Bullet kit medium. 80 μL of this cell suspension was added per well to seed 2000 cells per well. […] In the foregoing study, the following points relate to compound dilution and treatment: • 20 μL of stock (100×) was serially diluted (2×) in 20 μL of sterile deionized water. • 20 μL of each dilution was then added in triplicates in the previously seeded 96-well plate. • Cells treated with deionized water served as control. • 100 μL of complete Ham's F12 medium served as media blank for the data analysis. • 200 μL of PBS was added in all corner wells of the assay plate. Plate was then incubated for 72 hours in an incubator with 5% CO2 at 37° C. In the foregoing study, the following points relate to termination: • XTT reagent-1 mg/mL solution of XTT was made in serum-free Ham's F12 medium. […] The data was analyzed using GraphPad Prism Software. In regard to data generation in the foregoing study: • Raw data of OD values was obtained in the form of excel sheet from Victor X5 Multi-label Plate Reader. • Average of media blank and average of control was calculated. • Average media blank was subtracted from each experimental well and control.
# [5] = tested on: HT-1080 cells (fibrosarcoma cell line); assay: XTT proliferation assay on HT-1080 cells; format: cell-based; details: Homo sapiens
compound,measurement,setting,value
CC1=C(C(=O)O)N2C(=O)[C@@H](NC(=O)[C@H](N)c3ccccc3)[C@H]2SC1 [cephalexin],killing of germs,[1],not all germs were killed
neomycin,killing of germs,[1],not all germs were killed
CC[C@H]1OC(=O)[C@H](C)[C@@H](O[C@H]2C[C@@](C)(OC)[C@@H](O)[C@H](C)O2)[C@H](C)[C@@H](O[C@@H]2O[C@H](C)C[C@H](N(C)C)[C@H]2O)[C@](C)(O)C[C@@H](C)C(=O)[C@H](C)[C@@H](O)[C@]1(C)O [erythromycin],killing of germs,[1],not all germs were killed
gentamicin,killing of germs,[1],not all germs were killed
CCN1CCN(c2cc3c(cc2F)c(=O)c(C(=O)O)cn3C2CC2)CC1 [enrofloxacin],speed of improvement versus product group,[2],slower than in the first group
same,killing of germs,[1],not all germs were killed
NCC[C@H](O)C(=O)N[C@@H]1C[C@H](N)[C@@H](O[C@H]2O[C@H](CN)[C@@H](O)[C@H](O)[C@H]2O)[C@H](O)[C@H]1O[C@H]1O[C@H](CO)[C@@H](O)[C@H](N)[C@H]1O [amikacin],killing of germs,[1],not all germs were killed
Cc1onc(-c2ccccc2Cl)c1C(=O)N[C@@H]1C(=O)N2[C@@H]1SC(C)(C)[C@@H]2C(=O)O [cloxacillin],killing of germs,[1],not all germs were killed
penicillin,killing of germs,[1],not all germs were killed
Spiramycin,killing of germs,[1],not all germs were killed
CC1(C)S[C@@H]2[C@H](NC(=O)[C@H](N)c3ccccc3)C(=O)N2[C@H]1C(=O)O [Ampicillin],outcome of treatment,[3],they were not cured
same,killing of germs,[1],not all germs were killed
Tylozin,killing of germs,[1],not all germs were killed
COc1cccc2c1C(=O)c1c(O)c3c(c(O)c1C2=O)C[C@@](O)(C(=O)CO)C[C@@H]3O[C@H]1C[C@H](N)[C@H](O)[C@H](C)O1 [Doxorubicin],% Inhibition,[4]; Doxorubicin 0.000 μM,24.6%
same,inhibition at 0.001 µM,"[4]; Homo sapiens, Doxorubicin 0.001 μM",17.9%
same,inhibition at 0.004 µM,"[4]; Homo sapiens, Doxorubicin 0.004 μM",25.9%
same,inhibition at 0.01 µM,"[4]; Homo sapiens, Doxorubicin 0.01 μM",26.9%
same,inhibition at 0.04 µM,"[4]; Homo sapiens, Doxorubicin 0.04 μM",33.9%
same,inhibition at 0.11 µM,"[4]; Homo sapiens, Doxorubicin 0.11 μM",37.5%
same,inhibition at 0.33 µM,"[4]; Homo sapiens, Doxorubicin 0.33 μM",68.6%
same,inhibition at 1 µM,"[4]; Homo sapiens, Doxorubicin 1 μM",86.4%
same,inhibition at 3 µM,"[4]; Homo sapiens, Doxorubicin 3 μM",57.1%
same,inhibition at 0.0002 µM,[5]; Doxorubicin 0.0002 μM,16.1%
same,inhibition at 0.0005 µM,[5]; Doxorubicin 0.0005 μM,14.9%
same,inhibition at 0.0014 µM,[5]; Doxorubicin 0.0014 μM,22.1%
same,inhibition at 0.0041 µM,[5]; Doxorubicin 0.0041 μM,28.9%
same,inhibition at 0.0123 µM,[5]; Doxorubicin 0.0123 μM,63.6%
same,inhibition at 0.037 µM,[5]; Doxorubicin 0.0370 μM,76.4%
same,inhibition at 0.1111 µM,[5]; Doxorubicin 0.1111 μM,77.7%
same,inhibition at 0.3333 µM,[5]; Doxorubicin 0.3333 μM,91%
same,inhibition at 1 µM,[5]; Doxorubicin 1 μM,98.2%
O=C(O)c1cn(C2CC2)c2cc(N3CCNCC3)c(F)cc2c1=O [ciprofloxacin],killing of germs,[1],not all germs were killed
[H]/N=C(/N)N[C@H]1[C@H](O)[C@@H](O)[C@H](O[C@@H]2O[C@@H](C)[C@](O)(C=O)[C@H]2O[C@@H]2O[C@@H](CO)[C@H](O)[C@@H](O)[C@@H]2NC)[C@@H](N/C(N)=N\[H])[C@@H]1O [streptomycin],killing of germs,[1],not all germs were killed
